The record followed here is patent publication US7022716B2, “Cyclic amine phenyl beta-3 adrenergic receptor agonists” (Wyeth, priority 2000, dated 2006).

For data set [1], the target named is T1, human β3 adrenergic receptor (Homo sapiens, UniProt P13945).
T1 construct: Full length β3 AR clones (402 amino acids) containing the last 6 amino acids of hβ3-AR are prepared; expressed in transfected cells; host or cells: CHO (Chinese hamster ovary) cells
The data set can be described thus: cAMP (SPA) response in CHO cells transfected with human β3 adrenergic receptor. The class given is cell-based. Details: key: fraction of maximal isoproterenol (10^-5 M) response. The conditions noted are these: maximal response relative to maximal response of isoproterenol at 10^-5 M. The procedure, abridged: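 Reactions were stopped with 0.2N HCl and neutralised, and cAMP was measured by SPA. Activity is expressed as percent of the maximal 10^−5 M isoproterenol response.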

Structures are written as SMILES.

T1 sequence (P13945 whole entry): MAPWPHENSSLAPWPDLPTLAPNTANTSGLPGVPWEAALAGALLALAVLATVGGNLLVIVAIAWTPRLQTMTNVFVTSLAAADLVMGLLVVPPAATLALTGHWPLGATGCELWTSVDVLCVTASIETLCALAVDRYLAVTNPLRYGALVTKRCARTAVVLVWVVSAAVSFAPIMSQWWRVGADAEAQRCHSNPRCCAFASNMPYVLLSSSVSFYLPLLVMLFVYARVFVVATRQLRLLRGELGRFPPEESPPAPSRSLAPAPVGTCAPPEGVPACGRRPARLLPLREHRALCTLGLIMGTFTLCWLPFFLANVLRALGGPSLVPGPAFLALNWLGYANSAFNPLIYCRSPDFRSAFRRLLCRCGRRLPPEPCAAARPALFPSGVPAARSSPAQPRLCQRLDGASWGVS

A word on the melting point: it is the temperature of the solid-liquid transition. For `O=C1NC(=O)C(=Cc2ccc(N3CCC(NC[C@H](O)COc4cccc5[nH]c(=O)[nH]c45)CC3)c(F)c2)S1` [Example 69, 5-(3-Fluoro-4-{4-[(2S)-2-hydroxy-3-(2-oxo-2,3-dihydro-1H-benzoimidazol-4-yloxy)-propylamino]-piperidin-1-yl}-benzylidene)-thiazolidine-2,4-dione], the melting point was 162 to 164 °C. For the same compound, the “IA(β3)” value in data set [1] is reported as 1.
In the same order, the values of `CS(=O)(=O)Nc1cc(C(O)CNC2CCN(c3ccc(C=C4SC(=O)NC4=O)cc3Br)CC2)ccc1O` (centres unmarked) [Example 70, N-[5-(2-{1-[2-Bromo-4-(2,4-dioxo-thiazolidin-5-ylidenemethyl)-phenyl]-piperidin-4-ylamino}-1-hydroxy-ethyl)-2-hydroxy-phenyl]-methanesulfonamide] are over 200 °C and 1.2.
On the same counts, the results for `CS(=O)(=O)Nc1cc(C(O)CNC2CCN(c3ccc(C=C4SC(=O)NC4=O)cc3F)CC2)ccc1O` (centres unmarked) [Example 71, N-[5-(2-{1-[4-(2,4-Dioxo-thiazolidin-5-ylidenemethyl)-2-fluoro-phenyl]-piperidin-4-ylamino}-1-hydroxy-ethyl)-2-hydroxy-phenyl]-methanesulfonamide] are over 225 °C and 1.2.
On the same counts, the results for `O=C1NC(=S)SC1=Cc1ccc(N2CCC(NC[C@H](O)COc3ccccc3)CC2)cc1` [Example 72, 5-{4-[4-((2S)-2-Hydroxy-3-phenoxy-propylamino)-piperidin-1-yl]-benzylidene}-2-thioxo-thiazolidin-4-one] are > 220 °C (dec.) and 0.68.
As to `O=C1NC(=O)C(Cc2ccc(N3CCC(NC[C@H](O)COc4ccccc4)CC3)cc2)S1` (stereo partly drawn) [Example 73, 5-[4-[4-((2S)-2-Hydroxy-3-phenoxy-propylamino)-piperidin-1-yl]-benzyl}-thiazolidin-2,4-dione], the melting point fell in the range of 218 to 220 °C. Moreover, in data set [1], the “IA(β3)” value is listed as 0.71.
On the same counts, the results for `O=C1NC(=O)C(Cc2ccc(N3CCC(NCC(O)COc4ccc(OCc5ccccc5)cc4)CC3)cc2)S1` [Example 74, 5-(4-{4-[(2S)-3-(4-Benzyloxy-phenoxy)-2-hydroxy-propylamino]-piperidin-1-}-benzyl)-thiazolidine-2,4-dione] are > 70 °C (dec.) and 0.23.
In the same order, the values of `O=C1NC(=O)C(=Cc2ccc(N3CCC(NC[C@H](O)COc4cccc5[nH]c(=O)[nH]c45)CC3)cc2)S1` [Example 75, 5-(4-{4-[(2S)-2-Hydroxy-3-(2-oxo-2,3-dihydro-1H-benzoimidazol-4-yloxy)-propylamino]-piperidin-1-yl}-benzylidene)-thiazolidine-2,4-dione] are > 240 °C (dec.) and 1.08.
On to `O=C1NC(=O)C(=Cc2ccc(N3CCC(NC[C@H](O)COc4ccc(O)cc4)CC3)cc2)S1` [Example 76, 5-(4-{4-[(2S)-2-Hydroxy-3-(4-hydroxy-phenoxy)-propylamino]-piperidin-1-yl}-benzylidene)-thiazolidine-2,4-dione], for which the melting point is > 208 °C (dec.). Further, the “IA(β3)” value in data set [1] worked out at 0.94.
The compound `O=C1NC(=O)C(Cc2ccc(N3CCC(NC[C@H](O)c4cccc(Cl)c4)CC3)cc2)S1` (stereo partly drawn) [Example 79, 5-(4-{4-[2-(3-Chloro-phenyl)-(2R)-2-hydroxyethylamino}-piperidin-1-yl}-benzyl)-thiazolidine-2,4-dione] gave a melting point of over 195 °C. Besides, the “IA(β3)” value in data set [1] is listed as 0.56.
Regarding `O=C1NC(=O)C(Cc2ccc(N3CCC(NC[C@H](O)COc4cccc5[nH]c(=O)[nH]c45)CC3)cc2)S1` (stereo partly drawn) [Example 80, 5-(4-{4-[(2S)-2-Hydroxy-3-(2-oxo-2,3-dihydro-1H-benzoimidazol-4-yloxy)-propylamino]-piperidin-1-yl}-benzyl)-thiazolidine-2,4-dione], the melting point was 173 to 175 °C (dec.). Also, the “IA(β3)” value in data set [1] is given as 1.1.
